Patent US20030176314A1, “Compounds for the treatment of pain” (priority 2001, published 2003)

Experiments:
[1] = molecular target: T1, serotonin (5HT) transporter (Rattus norvegicus, UniProt P31652); test: Binding at native serotonin transporter (5HT uptake); conditions: Table 8
T1 construct: evaluated at native, tissue-derived transporters; from tissue
Procedure, shortened: (§1)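 Binding (Ki) at native, tissue-derived rat serotonin and norepinephrine transporters, measured by the Owens (1997) protocol.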

[2] = molecular target: T2, norepinephrine (NE) transporter (Rattus norvegicus, UniProt Q63380); test: Binding at native norepinephrine transporter (NE uptake); conditions: Table 8
T2 construct: evaluated at native, tissue-derived transporters; from tissue
Procedure, shortened: as §1

[3] = molecular target: T3, human Y1 receptor (Homo sapiens, UniProt P25929); test: Binding at human neuropeptide Y Y1 receptor; conditions: Table 8; read-out: hY1 Ki
T3 construct: host or cells: 293 cells, line 293-hY1-5
T3 sequence (P25929 1-384): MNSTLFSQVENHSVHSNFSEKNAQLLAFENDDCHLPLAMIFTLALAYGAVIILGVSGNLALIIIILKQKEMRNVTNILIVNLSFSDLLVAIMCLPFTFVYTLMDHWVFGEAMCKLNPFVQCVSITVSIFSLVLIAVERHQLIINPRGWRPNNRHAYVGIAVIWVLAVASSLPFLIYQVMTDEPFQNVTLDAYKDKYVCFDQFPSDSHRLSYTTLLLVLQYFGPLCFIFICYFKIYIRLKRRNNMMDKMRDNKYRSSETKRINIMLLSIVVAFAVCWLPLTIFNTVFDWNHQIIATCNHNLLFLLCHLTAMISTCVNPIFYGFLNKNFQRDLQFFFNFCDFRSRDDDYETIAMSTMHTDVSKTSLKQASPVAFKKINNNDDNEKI
Excerpt: (§2) Neuropeptide receptors: Stably transfected cell lines which may be used for binding experiments include, for the Y1 receptor, 293-hY1-5 (deposited Jun. 4, 1996, under ATCC Accession No. CRL-12121); for the Y2 receptor, 293-hY2-10 (deposited Jan. 27, 1994, under ATCC Accession No. CRL-11837); for the Y4 receptor, L-hY4-3 (deposited Jan. 11, 1995, under ATCC Accession No. CRL 11779); and for the Y5 receptor, L-hY5-7 (deposited Nov. 15, 1995, under ATCC Accession No. CRL 11995).
(§3) Binding assays using the NPY receptors may be carried out according to the procedures described in U.S. Pat. No. 5,602,024, the disclosure of which is hereby incorporated by reference in its entirety into this application.
(§4) The binding affinity (Ki) of these compounds were tested according to the protocols described herein at the following receptors; human α1A, α1B, α1D, α2A, α2B, and α2C adrenergic receptors; human Y1, Y2, Y4, and Y5 receptors; and N-Methyl-D-aspartic acid (NMDA) receptor channels. The binding interactions of these compounds were additionally tested at the norepinephrine (NE) transporter (NE uptake) and serotonin (5-hydroxytryptamine (5HT)) transporter (5HT uptake) according to protocols described herein

[4] = molecular target: T4, human Y4 receptor (Homo sapiens, UniProt P50391); test: Binding at human neuropeptide Y Y4 receptor; conditions: Table 8; read-out: hY4 Ki
T4 construct: host or cells: L cells, line L-hY4-3
Excerpt: as §2, §3, §4

[5] = molecular target: T5, human Y5 receptor (Homo sapiens, UniProt Q15761); test: Binding at human neuropeptide Y Y5 receptor; conditions: Table 8; read-out: hY5 Ki
T5 construct: host or cells: L cells, line L-hY5-7
T5 sequence (Q15761 1-445): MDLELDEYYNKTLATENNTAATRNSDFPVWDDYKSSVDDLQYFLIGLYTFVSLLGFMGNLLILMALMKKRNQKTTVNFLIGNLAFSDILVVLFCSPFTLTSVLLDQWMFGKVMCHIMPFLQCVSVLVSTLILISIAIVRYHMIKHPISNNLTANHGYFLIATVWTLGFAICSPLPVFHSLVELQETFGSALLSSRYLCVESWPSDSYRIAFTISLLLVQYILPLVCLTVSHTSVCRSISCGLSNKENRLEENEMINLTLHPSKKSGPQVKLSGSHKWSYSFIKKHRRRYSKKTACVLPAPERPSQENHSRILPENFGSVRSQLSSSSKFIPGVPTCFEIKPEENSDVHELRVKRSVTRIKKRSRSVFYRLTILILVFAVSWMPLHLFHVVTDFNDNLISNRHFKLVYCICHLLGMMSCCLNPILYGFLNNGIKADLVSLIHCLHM
Excerpt: as §2, §3, §4

[6] = molecular target: T6, human Y2 receptor (Homo sapiens, UniProt P49146); test: Binding at human neuropeptide Y Y2 receptor; conditions: Table 8; read-out: hY2 Ki
T6 construct: host or cells: 293 cells, line 293-hY2-10
T6 sequence (P49146 1-381): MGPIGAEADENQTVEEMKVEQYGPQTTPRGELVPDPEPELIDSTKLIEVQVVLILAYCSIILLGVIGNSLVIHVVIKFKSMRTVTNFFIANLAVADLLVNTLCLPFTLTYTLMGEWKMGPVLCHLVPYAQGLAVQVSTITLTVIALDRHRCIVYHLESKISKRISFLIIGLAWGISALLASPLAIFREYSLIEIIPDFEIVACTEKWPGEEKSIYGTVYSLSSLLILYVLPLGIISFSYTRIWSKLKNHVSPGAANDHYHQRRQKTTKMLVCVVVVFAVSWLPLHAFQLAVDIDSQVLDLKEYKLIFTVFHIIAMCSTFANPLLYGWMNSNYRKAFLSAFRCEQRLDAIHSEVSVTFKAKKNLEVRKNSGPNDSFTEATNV
Excerpt: as §2, §3, §4

[7] = molecular target: T7, rat NPFF2 receptor (Rattus norvegicus, UniProt Q9EQD2); test: Functional assay (agonist potency, intrinsic activity) at cloned rat NPFF2 receptor; format: cell-based; conditions: Table 7, intrinsic activity
T7 construct: The full-length NPFF2 was amplified from rat spinal cord cDNA; expressed in transfected cells; host or cells: not given
T7 sequence (Q9EQD2 whole entry): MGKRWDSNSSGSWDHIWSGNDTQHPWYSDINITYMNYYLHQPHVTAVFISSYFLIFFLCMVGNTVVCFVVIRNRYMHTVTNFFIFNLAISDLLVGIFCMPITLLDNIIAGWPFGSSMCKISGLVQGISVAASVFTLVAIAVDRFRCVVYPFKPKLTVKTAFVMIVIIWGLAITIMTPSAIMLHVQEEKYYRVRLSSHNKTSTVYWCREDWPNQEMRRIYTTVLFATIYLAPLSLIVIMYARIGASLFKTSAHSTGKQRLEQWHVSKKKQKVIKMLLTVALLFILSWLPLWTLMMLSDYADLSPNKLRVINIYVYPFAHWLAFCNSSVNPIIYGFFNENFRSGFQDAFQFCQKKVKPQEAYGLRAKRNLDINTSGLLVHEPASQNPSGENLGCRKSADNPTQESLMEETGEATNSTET

T1 sequence (P31652 whole entry): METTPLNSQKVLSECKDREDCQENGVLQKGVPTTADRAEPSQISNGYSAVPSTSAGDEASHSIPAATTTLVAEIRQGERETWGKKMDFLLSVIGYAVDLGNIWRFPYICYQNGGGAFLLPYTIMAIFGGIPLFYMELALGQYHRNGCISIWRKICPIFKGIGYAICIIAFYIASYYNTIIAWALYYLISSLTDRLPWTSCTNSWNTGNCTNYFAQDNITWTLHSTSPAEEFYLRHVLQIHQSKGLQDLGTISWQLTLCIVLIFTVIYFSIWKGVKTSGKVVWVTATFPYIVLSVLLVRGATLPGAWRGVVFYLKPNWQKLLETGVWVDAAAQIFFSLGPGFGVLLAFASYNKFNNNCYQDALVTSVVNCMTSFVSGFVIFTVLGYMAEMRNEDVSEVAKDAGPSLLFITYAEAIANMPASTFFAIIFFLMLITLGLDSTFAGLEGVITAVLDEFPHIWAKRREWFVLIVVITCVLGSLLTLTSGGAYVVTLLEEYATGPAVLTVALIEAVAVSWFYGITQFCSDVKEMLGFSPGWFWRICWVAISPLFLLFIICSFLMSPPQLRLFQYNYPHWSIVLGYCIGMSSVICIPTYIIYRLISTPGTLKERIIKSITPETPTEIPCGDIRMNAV
T4 sequence (P50391 whole entry): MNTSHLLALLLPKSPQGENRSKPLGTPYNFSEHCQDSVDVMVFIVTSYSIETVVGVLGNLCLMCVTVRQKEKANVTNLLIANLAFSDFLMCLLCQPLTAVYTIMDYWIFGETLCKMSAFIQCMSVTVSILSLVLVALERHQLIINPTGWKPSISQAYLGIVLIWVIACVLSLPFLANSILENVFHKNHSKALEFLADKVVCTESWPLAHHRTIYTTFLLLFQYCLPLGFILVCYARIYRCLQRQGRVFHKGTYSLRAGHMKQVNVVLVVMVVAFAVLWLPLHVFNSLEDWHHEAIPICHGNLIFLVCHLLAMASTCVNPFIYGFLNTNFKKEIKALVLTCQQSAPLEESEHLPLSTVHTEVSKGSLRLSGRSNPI
T2 sequence (Q63380 1-617): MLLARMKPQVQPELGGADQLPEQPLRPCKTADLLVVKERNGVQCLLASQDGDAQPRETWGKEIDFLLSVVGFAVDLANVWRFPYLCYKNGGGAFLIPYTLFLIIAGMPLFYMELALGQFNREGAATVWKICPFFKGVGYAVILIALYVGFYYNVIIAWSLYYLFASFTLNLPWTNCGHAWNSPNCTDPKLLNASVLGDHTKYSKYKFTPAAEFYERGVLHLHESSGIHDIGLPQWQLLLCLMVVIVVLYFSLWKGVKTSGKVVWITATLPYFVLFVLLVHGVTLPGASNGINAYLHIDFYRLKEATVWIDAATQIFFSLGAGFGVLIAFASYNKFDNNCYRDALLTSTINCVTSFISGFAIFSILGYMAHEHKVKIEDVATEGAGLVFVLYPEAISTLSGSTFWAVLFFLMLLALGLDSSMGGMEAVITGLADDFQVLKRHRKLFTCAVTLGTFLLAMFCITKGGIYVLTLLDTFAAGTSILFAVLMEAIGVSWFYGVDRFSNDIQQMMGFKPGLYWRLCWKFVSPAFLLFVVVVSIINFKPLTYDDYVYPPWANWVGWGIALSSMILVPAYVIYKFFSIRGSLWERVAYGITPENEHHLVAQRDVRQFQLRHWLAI

| Compound | Ki [1] | Ki [2] | Ki [3] | Ki [4] | Ki [5] | Ki [6] | rNPFF2 IA [7] |
| --- | --- | --- | --- | --- | --- | --- | --- |
| Cc1nc(NC(=N)N)nc2ccc3ccccc3c12 [Compound 1007A] | 26 nM | 1.94 µM | 5.24 µM | 2.61 µM | 74 nM | > 50 µM | 66% NPFF |
| Cc1cc(NC(=N)N)nc2ccc(Cl)cc12 [Compound 4005A, N-(6-chloro-4-methyl-2-quinolinyl)guanidine] | 2580 nM | 8.29 µM | 12.3 µM | 5.05 µM | 358 nM | > 50 µM | 61% NPFF |
